{
  "source": "patent US8445006B2",
  "about": "“Biomolecular coating for implants” (Georgia Tech Research Corporation, priority 2006, dated 2013)",
  "key": {"[1]": {"system": "bone marrow stromal cells", "test": "Osteoblast-specific gene expression by qRT-PCR", "format": "cell-based, rat", "protocol": "(§1) Primary bone marrow stromal cells were harvested from the femora of young adult male Wistar rats in accordance with an IACUC-approved protocol. After excision, hindleg femora and tibiae were cleared of soft tissue and rinsed in growth medium (α-minimal essential medium supplemented with 10% fetal bovine serum, 1% penicillin-streptomycin, and 0.3 μg/ml amphotericin B). The ends of the long bones were then removed and the marrow space was flushed with culture medium (3-5 ml), using a syringe with an 18-gauge needle. Marrow isolates were pooled, centrifuged, resuspended in growth medium, and seeded for adhesion-dependent selection on tissue culture polystyrene dishes. Non-adherent hematopoietic cells were removed during subsequent medium exchanges, which occurred every other day. Cells were subcultured every two days according to standard techniques. For in vitro osteogenic assays, cells were seeded at 10,000 cells/cm^2 in growth medium. After 24 h, cultures were maintained in osteogenic medium consisting of growth medium supplemented with 50 μg/ml L-ascorbic acid and 3 mM sodium β-glycerophosphate.\nGene expression was analyzed by qRT-PCR. Total RNA was isolated at 7 days in culture using the Qiagen RNeasy RNA isolation kit. During RNA isolation and purification, samples were treated with DNaseI (27 Kunitz units/sample) for 15 min at room temperature to eliminate any genomic DNA contamination. The concentration of purified RNA was quantified using a NanoDrop™ (NanoDrop Technologies) and 1 μg of total RNA was used to synthesize cDNA templates by oligo(dT) priming using the Superscript First-Strand cDNA Synthesis System™.\nqRT-PCR was performed with the ABI Prism 7700 Sequence Detection System (Applied Biosystems; 40 cycles; melting for 15 s at 95° C.; annealing and extending for 60 s at 60° C.) using SYBR Green DNA intercalating dye. Gene transcript concentration in the sample cDNA template solutions was quantified by preparing a functional range of dilutions from an absolute standard for each gene. Linear standard curves were then generated by plotting the log of the known concentration versus the CT value (the cycle number at which the fluorescence reached a threshold level). Oligonucleotide primers (Table 1) were designed using Primer Express™ software (Applied Biosystems)."}, "rat tibia cortical bone [2]": {"system": "rat tibia cortical bone", "test": "Rat tibia cortical bone implantation, pull-out mechanical testing", "format": "in vivo", "protocol": "(§2) Commercially pure titanium implants (FIG. 4) were sonicated in de-ionized water for 20 min to remove surface debris. Implants were then dipped in 4% HF for 30 sec to remove the existing oxide layer and then incubated in 35% HNO3 for 30 min at 50° C. to regenerate a new oxide coating. Samples were transferred to 1.8 N NaOH for 1 min to terminate the oxidation reaction. Implants were then rinsed and boiled in de-ionized water for 1 h. To create the bioactive coating, the implants were incubated in 20 μg/ml GFOGER peptide (SEQ ID NO:1) or type I collagen solution for 1 h. Control titanium rods were incubated in PBS.\n(§3) Implantations were conducted in accordance with an IACUC-approved protocol. Both hind legs of anesthetized, mature Sprague-Dawley male rats (250-350 g) were shaved and scrubbed with alcohol. The medial aspect of the proximal tibial metaphysis was exposed through an antero-medial skin incision, leaving the medial collateral ligament intact. Using a saline-cooled drill, two defects were created in each tibia. Sterile implant rods were press fit into the defects. Periosteum was mobilized and sutured over the implantation site, and the skin was closed with wound clips. Subjects were euthanized after 4 weeks and proximal tibiae were fixed in neutral buffered formalin for histology or recovered without fixation and maintained in PBS-moistened gauze for immediate mechanical testing.\n(§4) To evaluate the performance of the bioactive GFOGER peptide (SEQ ID NO:1) treatment in vivo, osseointegration in a rat tibia cortical bone model was quantified using quantitative histomorphometry and pull-out mechanical testing. A cylindrical titanium implant rod with a tapered stop collar was designed (FIG. 4). The tapered head ensures that all implants are inserted into the bone at the same depth, guaranteeing uniform bone contact among treatments. Using a saline-cooled drill, two defects 2 mm in diameter were created in the medial aspect of the proximal tibial metaphysis. Implant rods consisting of GFOGER peptide (SEQ ID NO:1) functionalized or untreated (control) titanium were press fit into the cortical defects. After four weeks, the rat tibiae were harvested and evaluated for bone apposition by histological staining and mechanical integration by pull-out testing. […] Representative micrographs show 50-80 μm longitudinal ground sections of rat tibia stained with Sanderson's Rapid Bone Stain™ and van Gieson counterstain. Cells stain dark to light blue, soft tissue elements stain blue-green, and bone matrix stains yellow orange to autumn orange.\n(§5) Osseointegration of implants in a rat tibia cortical bone model was quantified to evaluate the in vivo performance of the engineered titanium surfaces in bone healing. Importantly, this in vivo model provides a rigorous platform to evaluate implant coating function in a relevant orthopaedic setting. Two 2.0-mm diameter defects were drilled into the medial aspect of the proximal tibial metaphysis using a saline cooled drill. Tapered cylindrical implants (FIG. 4) of clinical-grade titanium were press-fit into the cortical defects."}, "rat tibia cortical bone [3]": {"system": "rat tibia cortical bone", "test": "Rat tibia cortical bone implantation, histology and bone-implant contact histomorphometry", "format": "in vivo", "conditions": "4 weeks; for histology: bone matrix around implants: poly(OEGMA) brush implants, 0.9 pmol/cm^2", "protocol": "as §2, §3\nExcised tibiae were fixed in 10% neutral buffered formalin for 1 week. […] Ground sections of 50-80 μm were generated using the Exakt Grinding System™. Two longitudinal ground sections were generated per tibia, each containing two titanium plugs inserted transverse to the tibia's long axis. Sections were then stained with Sanderson's Rapid Bone Stain™ and a van Gieson counter stain. Bone implant contact (BIC) was measured as the percentage of implant's circumference that was in direct contact with bone tissue (Adobe Photoshop® CS imaging software).\nas §4, §5"}, "[4]": {"system": "bone marrow stromal cells", "test": "Alkaline phosphatase biochemical activity assay", "format": "cell-based, rat", "protocol": "as §1, with “After 24 h, cultures were maintained in osteogenic medium consisting of growth medium supplemented with 50 μg/ml L-ascorbic acid and 3 mM sodium β-glycerophosphate.” left out\nALP activity was quantified at 7 days in culture using a modification of the Sodek and Berkman method. […] After sonication and centrifugation, the protein concentration was quantified using a Pierce Micro BCA protein assay kit. […] After a 60 min incubation at 37° C., the fluorescence was read at an excitation of 360 nm and an emission of 465 nm on an HTS 7000 Plus BioAssay Reader (Perkin Elmer). […]"}, "[5]": {"conditions": "7-day cultures, tethered brushes vs RGD supports"}, "[6]": {"conditions": "4 weeks, tethered brushes 0.9 pmol/cm^2"}, "[7]": {"conditions": "7 day cultures, adsorbed coating vs untreated titanium"}},
  "data": [
    {"substance": "FNIII7-10: monobiotinylated recombinant fibronectin fragment spanning the 7-10th type III repeats of fibronectin; α5β1 integrin ligand", "values": [
      {"measurement": "bone sialoprotein (BSP) transcript levels", "setting": "[1]; [5]", "value": "increased transcript levels"},
      {"measurement": "osteocalcin (OCN) transcript levels", "setting": "[1]; [5]", "value": "increased transcript levels"},
      {"measurement": "Runx2/Cbfa1 expression levels", "setting": "[1]; 7-day cultures, tethered brushes vs equimolar RGD brushes", "value": "elevated"},
      {"measurement": "mechanical fixation vs unmodified titanium", "setting": "rat tibia cortical bone [2]; 4 weeks, tethered brushes", "value": "higher mechanical fixation"},
      {"measurement": "enhancement in fixation over RGD-tethered implants", "setting": "rat tibia cortical bone [2]; [6]", "value": 2.9, "unit": "fold"},
      {"measurement": "improvement in fixation compared to unmodified poly(OEGMA) brush coating", "setting": "rat tibia cortical bone [2]; [6]", "value": "~4", "unit": "fold"},
      {"measurement": "dependence of mechanical fixation on tethered surface density", "setting": "rat tibia cortical bone [2]; varying tethered densities, hyperbolic relationship R^2=0.87", "value": "increased with FNIII7-10 surface density"},
      {"measurement": "bone-implant apposition", "setting": "rat tibia cortical bone [3]; passively coated (20 μg/ml) vs unmodified titanium or pFN-coated", "value": "enhanced bone-implant apposition"},
      {"measurement": "histology: bone matrix around implants", "setting": "rat tibia cortical bone [3]", "value": "extensive and contiguous bone matrix"},
      {"measurement": "bone-implant contact area vs unmodified titanium implant", "setting": "rat tibia cortical bone [3]; tethered brush implants", "value": "significantly higher"},
      {"measurement": "alkaline phosphatase activity", "setting": "[4]; tethered brushes vs RGD-functionalized surfaces", "value": "higher alkaline phosphatase activity"}
    ]},
    {"substance": "GGYGGGPC(GPP)5GFOGER(GPP)5GPC [GFOGER peptide]", "values": [
      {"measurement": "Runx2/Cbfa1 expression levels", "setting": "[1]; [7]", "value": "elevated"},
      {"measurement": "bone sialoprotein gene expression", "setting": "[1]; [7]", "value": "greater levels of gene expression"},
      {"measurement": "osteocalcin gene expression", "setting": "[1]; [7]", "value": "greater levels of gene expression"},
      {"measurement": "mechanical fixation (pull-out force)", "setting": "rat tibia cortical bone [2]; 4 weeks, vs type I collagen or untreated titanium", "value": "significantly higher mechanical fixation"},
      {"measurement": "bone apposition (bone implant contact, BIC)", "setting": "rat tibia cortical bone [3]; passively coated implants vs untreated titanium", "value": "nearly two-fold enhancement"},
      {"measurement": "histology: peri-implant bone mineral", "setting": "rat tibia cortical bone [3]; passively coated titanium implants (20 μg/ml)", "value": "substantial and contiguous bone mineral"},
      {"measurement": "ALP activity", "setting": "[4]; 7 days, adsorbed coating vs untreated titanium", "value": "elevated levels of activation"}
    ]},
    {"substance": "GRGDSPC [RGD peptide, linear RGD oligopeptide purchased from BACHEM; primarily supports αvβ3-mediated adhesion, reference compound]", "values": [
      {"measurement": "any differentiation marker vs serum-exposed unmodified titanium", "setting": "[1]; tethered brushes", "value": "No differences were observed"},
      {"measurement": "bone apposition and mechanical fixation among brush implant groups", "setting": "rat tibia cortical bone [2]; 4 weeks, poly(OEGMA) brush implants", "value": "no differences in bone apposition or mechanical fixation"},
      {"measurement": "histology: bone matrix around implants", "setting": "rat tibia cortical bone [3]", "value": "Less bone tissue was observed"}
    ]}
  ]
}
